US9913838B2, “Methods of treating cancer using compositions comprising perillyl alcohol derivative” (NEONC TECHNOLOGIES INC., priority 2010, dated 2018)

What was measured:
[1] = CSF versus systemic circulation; cited from earlier work
[2] = system: TMZ resistant cells (U251TR); experiment: MTT cytotoxicity assay, U251TR cells; type: cell-based, human; conditions: in words
Source text: Cancer Lett. 2011 Mar. 28; 302(2):100-8.

[3] = system: γ-H2AX, activated caspase 7 and cleaved PARP; experiment: DNA damage and cell death marker analysis in MDA-MB-231 cells (Western blot); type: cell-based, human; conditions: in words
Protocol: FIGS. 25A-25B show DNA damage and cell death marker analysis, where MDA-MB-231 cells were used for Western blot analysis of expression levels for markers of DNA damage (γ-H2AX) and cell death (activated caspase 7 and cleaved PARP). In FIG. 25A, cells were treated with 15 μM TMZ-POH and harvested every 24 hours up to 6 days; control cells remained untreated, or received vehicle (vh.) only. In FIG. 25B, cells were treated with 20 μM of either TMZ-POH, TMZ, or POH individually, or with 20 μM TMZ combined with 20 μM POH (TMZ+POH) and harvested after 24 hours or 5 days; control cells remained untreated, or received vehicle (vh.) only. In the case of caspase 7, only the activated (cleaved) form is shown (cl. C-7).
Total cell lysates were analyzed by Western blot analysis as described in P. Pyrko et al. Downregulation of survivin expression and concomitant induction of apoptosis by celecoxib and its non-cyclooxygenase-2-inhibitory analog, dimethyl-celecoxib (DMC), in tumor cells in vitro and in vivo. Mol Cancer 5 (2006) 19. The primary antibodies were purchased from Cell Signaling Technology (Beverly, Mass.) or Santa Cruz Biotechnology, Inc. (Santa Cruz, Calif.) and used according to the manufacturers' recommendations. All immunoblots were repeated at least once to confirm the results.
It is known that GBM cells treated with physiological concentrations of TMZ (<100 μM) in vitro can survive for several (5-7) days seemingly unaffected before substantial cell death becomes apparent. We observed a similar phenotype when breast cancer cell lines were treated with TMZ-POH, i.e., cell cultures only began to deteriorate approximately a week after the onset of drug treatment. In order to characterize TMZ-POH-induced cell death in greater detail, we treated MDA-MB-231 cells with 15 μM of the drug and collected cell lysates daily over the course of 6 days. The lysates were analyzed by Western blot for the presence of two apoptosis markers, cleaved (i.e. activated) caspase 7 and cleaved PARP-1 (poly ADP-ribose polymerase-1), along with the DNA damage marker γ-H2AX.
As shown in FIGS. 20A-20B above, an equimolar combination of TMZ+POH was unable to achieve the same potency in blocking colony survival as the TMZ-POH conjugate. […] We treated cells with the same concentration (20 μM) of TMZ-POH, TMZ, POH, or TMZ combined with POH (TMZ+POH), and analyzed the induction of γ-H2AX, activated caspase 7, and cleaved PARP. […] Thus, the results from the cell survival assay (FIGS. 20A-20B) correlated closely with the effects of these compounds on DNA damage and apoptosis markers (FIG. 25B), and in all cases TMZ-POH clearly generated the strongest anticancer impact.

Row | SMILES | drug levels in the cerebrospinal fluid (CSF) lower than in plasma [1] | cytotoxicity (MTT assay) [2] | active caspase 7 and cleaved PARP ([3]; MDA-MB-231, 15 μM, over 6 days) | γ-H2AX expression levels ([3]; MDA-MB-231, 15 μM, over 6 days) | induction of γ-H2AX, activated caspase 7, and cleaved PARP ([3]; MDA-MB-231, 20 μM, after 5 days of treatment)
1 | Cn1nnc2c(C(N)=O)ncn2c1=O [TMZ, temozolomide, reference compound] | 80% |  |  |  | 
2 | C=C(C)[C@@H]1CC=C(COC(=O)NC(=O)c2ncn3c(=O)n(C)nnc23)CC1 [TMZ-POH] |  | demonstrated cytotoxicity | started to increase at day 3 | pronounced increase in γ-H2AX expression levels | induced quite prominently
